Laboratory results: patent US5334582A, “Pharmaceutical bacteriocin compositions and methods for using the same” (Applied Microbiology, Inc., priority 1993, dated 1994)
Where two headings read alike, the source gives them in different places.

Columns and labels:
Escherichia coli = settings: for % survival at 1 min: nisin 100 μg/ml and/or EDTA 1.0 mM
Experimental: The rapid activities of various chelator-enhanced nisin formulations were evaluated in acid vehicles in a germicidal suspension assay.
E. coli cells from an overnight Trypticase soy nutrient agar (TSA) were resuspended to a density measured as an absorbance of 1.0 at 600 nm in sterile ddH2 O. The reaction of the cells with each of the bactericidal test formulations analyzed is started by addition of 30 μl of cells to 970 μl of test formulation. The reaction mixture was incubated at 37° C. for at least 1 minute and then centrifuged in a microfuge for 1 minute. The cell pellet was washed by resuspension in 1 ml of neutralization buffer. (The neutralization buffer: 50 mM Tris-HCl, pH 7.0, 5 mM MgSO4, 20 mM CaCl2, 0.1 M NaCl and 0.1% gelatin was prepared by first making Tris buffer and adjusting the pH. The salts and gelatin were then added and the solution stirred with heat until the solution was clear. The solution was then autoclaved for 20 min. The neutralization buffer was used without dilution.) The cells were centrifuged in a microfuge for 1 minute and resuspended in 1 ml of neutralization buffer. The viable count was determined by spreading 100 μl of bacterial suspension and serial dilutions thereof in neutralization buffer on nutrient agar and scoring surviving colonies after 24 h at 37° C. Percent survival relative to untreated controls was calculated from the scored values.

E. coli strain ATCC8739 = experiment: nisin-citrate agar growth inhibition assay; type: cell-based; settings: Trypticase Soy Agar
Experimental: However, nisin in the presence of citrate is active against gram negative bacteria. […] This nisin-citrate agar assay has much more general applicability. The assay provides a method for screening potential agents other than citrate in combination with nisin for their potential properties as enhancers of nisin's inherent bactericidal activity.
E. coli is resuspended to an optical density of 1.0 at A600. A 100 μl sample of the bacterial suspension is spread uniformly on Trypticase Soy nutrient agar (TSA) supplemented with various concentrations of citrate (eg. 0.1%, 0.3%, 1.0%, 3.0%) and incubated for 1 hour at 37° C. A nisin stock solution and serial dilutions thereof in 0.1% bovine serum albumin (BSA), are prepared and 5 μl are taken from each and deposited onto the growing bacterial lawn. The TSA plates are then incubated for 24 hours at 37° C. After 24 hours at 37° C., E. coli grown on TSA supplemented with citrate form a confluent lawn. […] The effectiveness of nisin against the gram negative bacteria can be assessed from determining the minimum amount of nisin required to produce a clear zone of growth inhibition. As the concentration of citrate in the nutrient agar is increased, less nisin is required to inhibit the growth of E. coli, as is illustrated by the data shown in Table 6.

[1] = 0.1% w/v acetate pH 3.5, 37° C.
[2] = 0.1% w/v citrate pH 3.5, 37° C.
[3] = 0.1% w/v lactate pH 3.5, 37° C.
[4] = 0.3% w/v acetate pH 3.5, 37° C.
[5] = 0.3% w/v citrate pH 3.5, 37° C.
[6] = 0.3% w/v lactate pH 3.5, 37° C.
[7] = 1.0% w/v acetate pH 3.5, 37° C.
[8] = 1.0% w/v citrate pH 3.5, 37° C.
[9] = 3.0% w/v citrate pH 3.5, 37° C.
[10] = pH 2.0, 20 mM Na acetate buffer, 37° C., initial count 4 × 10^7 cfu/ml

O=C(O)CN(CCN(CC(=O)O)CC(=O)O)CC(=O)O [EDTA]
% survival at 1 min (Escherichia coli; [1]): 40% | % survival at 1 min (Escherichia coli; [2]): 100% | % survival at 1 min (Escherichia coli; [3]): 5.1% | % survival at 1 min (Escherichia coli; [4]): 25% | % survival at 1 min (Escherichia coli; [5]): 50.0% | % survival at 1 min (Escherichia coli; [6]): 0.46% | % survival at 1 min (Escherichia coli; [7]): 25% | % survival at 1 min (Escherichia coli; [8]): 47.9% | % survival at 1 min (Escherichia coli; 1.0% w/v lactate pH 3.5, 37° C.): 0.91% | % survival at 1 min (Escherichia coli; [9]): 100% | % survival at 1 min (Escherichia coli; [10]): 0.07%

nisin
Nisin NIC (nominal inhibitory concentration minimally required to prevent growth) (E. coli strain ATCC8739; 0% citrate): 3,333 μg/ml | Nisin NIC (nominal inhibitory concentration minimally required to prevent growth) (E. coli strain ATCC8739; 0.1% citrate): 370 µg/mL | Nisin NIC (nominal inhibitory concentration minimally required to prevent growth) (E. coli strain ATCC8739; 0.3% citrate): 123 µg/mL | Nisin NIC (nominal inhibitory concentration minimally required to prevent growth) (E. coli strain ATCC8739; 1.0% citrate): 13.7 µg/mL | Nisin NIC (nominal inhibitory concentration minimally required to prevent growth) (E. coli strain ATCC8739; 3.0% citrate): 0.06 µg/mL | % survival at 1 min (Escherichia coli; [1]): 9.6% | % survival at 1 min (Escherichia coli; [2]): 0.003% | % survival at 1 min (Escherichia coli; [3]): 4.4% | % survival at 1 min (Escherichia coli; [4]): 70% | % survival at 1 min (Escherichia coli; [5]): 0.0007% | % survival at 1 min (Escherichia coli; [6]): 0.24% | % survival at 1 min (Escherichia coli; [7]): 100% | % survival at 1 min (Escherichia coli; [8]): 0.56% | % survival at 1 min (Escherichia coli; 3.0% w/v acetate pH 3.5, 37° C.): 100% | % survival at 1 min (Escherichia coli; [9]): 14.6% | activity towards gram negative bacteria (Escherichia coli; nisin by itself or in the presence of citrate): ineffective | % survival at 1 min (Escherichia coli; [10]): 0.28% | % survival at 1 min (Escherichia coli; pH 3.5, 20 mM Na acetate buffer, 37° C.): 100% | % survival at 1 min (Escherichia coli; pH 4.0, 20 mM Na acetate buffer, 37° C.): 100%
